Drawing on patent US20240360151A1 (SANOFI, priority 2023, published 2024), this text covers IC50 for 34 compounds.

One test deals with T1, NLRP3 inflammasome (Homo sapiens, UniProt Q96P20).
T1 construct: endogenous in cells; host or cells: THP-1 monocytic cells
In words: IL-1β secretion assay (NLRP3 IC50) in LPS-primed, nigericin-activated THP-1 cells, HTRF. The test is classed as cell-based. To be noted: monocytic THP-1 cells; LPS 10 ng/mL 3 h priming, then compound + nigericin 10 μM 2 h; relative IC50, 10 concentrations, geometric mean. The procedure, abridged:
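IL-1β in supernatant read by HTRF after 2 h co-incubation of compound (0.1% DMSO, 10 concentrations, 1:3 series) with nigericin at 10 μM final, following 3 h LPS (10 ng/mL) priming of THP-1 monocytes at 37° C. Inhibition normalised to unactivated and no-compound controls; geometric-mean relative IC50 from 4-parameter logistic model.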
Background: Time-resolved FRET reads energy transfer from a long-lived donor to a nearby acceptor.

Test [1] has as its system NF-kB pathway (TNF-α secretion by THP-1 cells). Kind of test: TNF-α secretion assay in LPS-stimulated THP-1 cells, Lumit immunoassay. Type of test: cell-based, human. As to conditions: monocytic THP-1 cells, LPS 10 ng/mL, relative IC50, 10 concentrations, geometric mean. The method in brief: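 TNF-α release was quantified directly in the cell plate by Lumit immunoassay after a 3-h, 10 ng/mL LPS trigger of compound-treated THP-1 cells (RPMI, 5% FBS). Percent inhibition versus no-compound and unstimulated controls fed a 4-parameter logistic fit over 10 concentrations, giving geometric-mean relative IC50.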

T1 sequence (Q96P20 whole entry): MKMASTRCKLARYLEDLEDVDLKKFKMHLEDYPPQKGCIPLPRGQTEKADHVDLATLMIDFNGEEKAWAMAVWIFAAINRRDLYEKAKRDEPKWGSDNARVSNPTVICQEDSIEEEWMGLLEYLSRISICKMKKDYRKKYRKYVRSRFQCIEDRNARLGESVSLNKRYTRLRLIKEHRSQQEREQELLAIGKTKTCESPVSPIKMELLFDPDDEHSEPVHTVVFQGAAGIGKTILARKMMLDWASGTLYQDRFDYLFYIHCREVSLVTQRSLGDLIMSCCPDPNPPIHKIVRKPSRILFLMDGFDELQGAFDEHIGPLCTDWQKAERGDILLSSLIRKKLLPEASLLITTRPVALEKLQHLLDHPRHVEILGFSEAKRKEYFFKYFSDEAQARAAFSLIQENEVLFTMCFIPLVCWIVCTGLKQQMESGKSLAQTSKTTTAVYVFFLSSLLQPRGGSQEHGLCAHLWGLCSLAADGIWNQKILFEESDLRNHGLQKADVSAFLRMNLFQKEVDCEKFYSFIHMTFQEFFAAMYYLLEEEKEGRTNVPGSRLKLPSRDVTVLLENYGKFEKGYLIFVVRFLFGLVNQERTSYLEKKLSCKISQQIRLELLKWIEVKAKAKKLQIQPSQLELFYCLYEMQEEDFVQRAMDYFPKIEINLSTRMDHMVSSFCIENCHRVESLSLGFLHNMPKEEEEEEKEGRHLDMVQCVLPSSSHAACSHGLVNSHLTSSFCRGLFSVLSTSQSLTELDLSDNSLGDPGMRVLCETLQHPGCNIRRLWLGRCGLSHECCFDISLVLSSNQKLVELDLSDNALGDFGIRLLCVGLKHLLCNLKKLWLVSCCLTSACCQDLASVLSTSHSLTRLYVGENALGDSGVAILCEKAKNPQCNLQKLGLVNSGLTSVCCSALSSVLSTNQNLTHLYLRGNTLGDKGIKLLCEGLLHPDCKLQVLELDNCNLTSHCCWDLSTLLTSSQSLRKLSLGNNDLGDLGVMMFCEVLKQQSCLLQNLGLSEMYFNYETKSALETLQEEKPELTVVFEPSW

The IC50 is the concentration that inhibits the measured activity by half. For the compound `CC(=O)NCCC1CN(c2ccc(-c3c(C)cc(C(F)(F)F)cc3O)nn2)CCO1` (single isomer, unassigned) [Example 277, N-[2-[4-[6-[2-hydroxy-6-methyl-4-(trifluoromethyl)phenyl]pyridazin-3-yl]morpholin-2-yl]ethyl]acetamide], the IC50 on NLRP3 inflammasome was determined as 0.051 µM; in test [1] (3 hours), 2.04 µM.

As for `CC(=O)NCCC1CN(c2ccc(-c3c(C)cc(C(F)(F)F)cc3O)nn2)CCO1` (single isomer, unassigned) [Example 278, N-[2-[4-[6-[2-hydroxy-6-methyl-4-(trifluoromethyl)phenyl]pyridazin-3-yl]morpholin-2-yl]ethyl]acetamide], the IC50 at NLRP3 inflammasome is 0.05 µM; in test [1] (3 hours), greater than 10 µM.

In the case of `Cc1cc(C(F)(F)F)cc(O)c1-c1ccc(N2CCO[C@H](CF)C2)nn1` (single isomer, unassigned) [Example 284], the IC50 was 0.087 µM at NLRP3 inflammasome and greater than 10 µM in test [1] (Homo sapiens, THP-1, 3 h).

With `Cc1cc(C(F)(F)F)cc(O)c1-c1ccc(N2CCC(CO)CC2=O)nn1` (single isomer, unassigned) [Example 293], the IC50 is 0.084 µM on NLRP3 inflammasome and greater than 10 µM in test [1] (Homo sapiens, THP-1, 3 h).

Regarding `CCN1CC[C@@H]2OCCN(c3ccc(-c4c(C)cc(Cl)cc4O)nn3)[C@@H]2C1` (single isomer, unassigned) [Example 312], the IC50 was 0.056 µM on NLRP3 inflammasome and greater than 10 µM in test [1] (Homo sapiens, THP-1, 3 h).

Consider `CCN1CC[C@H]2OCCN(c3ccc(-c4c(C)cc(Cl)cc4O)nn3)[C@H]2C1` (single isomer, unassigned) [Example 313], for which the IC50 at NLRP3 inflammasome was 0.0003 µM; in test [1] (Homo sapiens, THP-1, 3 h), greater than 10 µM.

`Cc1cc(Cl)cc(O)c1-c1ccc(N2CCO[C@@H]3CCN(C)C[C@@H]32)nn1` (single isomer, unassigned) [Example 321]: the half-maximal inhibitory concentration (IC50) at NLRP3 inflammasome was 0.001 µM; in test [1] (Homo sapiens, THP-1, 3 h), greater than 10 µM.

Take `Cc1cc(C(F)(F)F)cc(O)c1-c1ccc(N2CCO[C@H]3CCN(C)C[C@@H]32)nn1` (single isomer, unassigned) [Example 343]: the IC50 on NLRP3 inflammasome is 0.047 µM; in test [1] (Homo sapiens, THP-1, 3 h), greater than 10 µM.

In the case of `Cc1cc(N2CC[C@@H]3CCN(C)C[C@@H]32)nnc1-c1ccc(C(F)(F)F)cc1O` (single isomer, unassigned) [Example 366], the IC50 at NLRP3 inflammasome was 0.025 µM; in test [1] (Homo sapiens, THP-1, 3 h), greater than 10 µM.

Take `Cc1cc(N2CC[C@H]3CCN(C)C[C@H]32)nnc1-c1ccc(C(F)(F)F)cc1O` (single isomer, unassigned) [Example 367]: the concentration for half-maximal inhibition (IC50) on NLRP3 inflammasome is 0.0005 µM; in test [1] (Homo sapiens, THP-1, 3 h), greater than 10 µM.

With `Cc1ccc(-c2nnc(N3CC[C@@H]4CCN(C)C[C@@H]43)cc2C)c(O)c1` (single isomer, unassigned) [Example 374], the half-maximal inhibitory concentration (IC50) at NLRP3 inflammasome is 0.042 µM; in test [1] (Homo sapiens, THP-1, 3 h), greater than 10 µM.

`Cc1ccc(-c2nnc(N3CC[C@H]4CCN(C)C[C@H]43)cc2C)c(O)c1` (single isomer, unassigned) [Example 375]: the IC50 at NLRP3 inflammasome was 0.0004 µM; in test [1] (Homo sapiens, THP-1, 3 h), greater than 10 µM.

With `Cc1cc(C)c(-c2ccc(N3CC[C@@H]4CCN(C)C[C@@H]43)nn2)c(O)c1` (single isomer, unassigned) [Example 384], the IC50 was 0.0004 µM at NLRP3 inflammasome and greater than 10 µM in test [1] (Homo sapiens, THP-1, 3 h).

As for `CC(=O)N1CC[C@H]2OCCN(c3ccc(-c4c(C)cc(Cl)cc4O)nn3)[C@H]2C1` (single isomer, unassigned) [Example 397], the IC50 at NLRP3 inflammasome was 0.023 µM; in test [1] (Homo sapiens, THP-1, 3 h), greater than 10 µM.

Regarding `Cc1cc(C(F)(F)F)cc(O)c1-c1ccc(N2CC[C@@H]3CCNC[C@@H]32)nn1` (single isomer, unassigned) [Example 407], the IC50 at NLRP3 inflammasome is 0.003 µM; in test [1] (Homo sapiens, THP-1, 3 h) it was greater than 10 µM.

As for `Cc1cccc(O)c1-c1ccc(N2CC[C@H]3CCN(C)C[C@H]32)nn1` (single isomer, unassigned) [Example 416], the IC50 on NLRP3 inflammasome was 0.001 µM; in test [1] (Homo sapiens, THP-1, 3 h), greater than 10 µM.

Turning to `CCc1cccc(O)c1-c1ccc(N2CC[C@H]3CCN(C)C[C@H]32)nn1` (single isomer, unassigned) [Example 423], the IC50 on NLRP3 inflammasome is 0.00048 µM; in test [1] (Homo sapiens, THP-1, 3 h) it was greater than 10 µM.

`CN1CC[C@H]2CCN(c3ccc(-c4c(O)cccc4C(F)(F)F)nn3)[C@H]2C1` (single isomer, unassigned) [Example 427]: the IC50 was 0.002 µM at NLRP3 inflammasome and greater than 10 µM in test [1] (Homo sapiens, THP-1, 3 h).

With `CCN1CC[C@H]2CCN(c3ccc(-c4c(C)cc(C(F)(F)F)cc4O)nn3)[C@H]2C1` (single isomer, unassigned) [Example 429], the IC50 at NLRP3 inflammasome was less than 0.00036 µM; in test [1] (Homo sapiens, THP-1, 3 h), greater than 10 µM.

Turning to `Cc1cc(C)c(-c2ccc(N3CCC[C@]4(C3)C[C@H](O)C4)nn2)c(O)c1` (single isomer, unassigned; isomer 1) [Example 175, 6-[6-(2-hydroxy-4,6-dimethyl-phenyl)pyridazin-3-yl]-6-azaspiro[3.5]nonan-2-ol Isomer 1], the 50% inhibitory concentration (IC50) on NLRP3 inflammasome was 0.522 µM; in test [1] (Homo sapiens, THP-1, 3 h), greater than 10 µM.

Turning to `Cc1cc(C)c(-c2ccc(N3CCC[C@]4(C3)C[C@@H](O)C4)nn2)c(O)c1` (single isomer, unassigned; isomer 2) [Example 176, 6-[6-(2-hydroxy-4,6-dimethyl-phenyl)pyridazin-3-yl]-6-azaspiro[3.5]nonan-2-ol Isomer 2], the IC50 is 0.25 µM at NLRP3 inflammasome and greater than 10 µM in test [1] (Homo sapiens, THP-1, 3 h).

For `Cc1cc(C)c(-c2ccc(N3C[C@@H]4COC[C@H]4C3)nn2)c(O)c1` (stereo in doubt) [Example 207, 2-[6-[(3aR,6aR)-1,3,3a,4,6,6a-hexahydrofuro[3,4-c]pyrrol-5-yl]pyridazin-3-yl]-3,5-dimethyl-phenol], the half-inhibitory concentration (IC50) at NLRP3 inflammasome was determined as 0.174 µM; in test [1] (Homo sapiens, THP-1, 3 h) it was 3.01 µM.

As to `CC(=O)N1CC[C@@H]2OCCN(c3ccc(-c4c(C)cc(C(F)(F)F)cc4O)nn3)[C@@H]2C1` (stereo in doubt) [Example 398, 1-[(4aR,8aS)-4-[6-[2-hydroxy-6-methyl-4-(trifluoromethyl)phenyl]pyridazin-3-yl]-3,4a,5,7,8,8a-hexahydro-2H-pyrido[4,3-b][1,4]oxazin-6-yl]ethanone], the IC50 was 0.017 µM at NLRP3 inflammasome and greater than 10 µM in test [1] (Homo sapiens, THP-1, 3 h).

For the compound `CCN1CC[C@H]2CCN(c3ccc(-c4c(C)cc(C(F)(F)F)cc4O)nn3)[C@H]2C1` (stereo in doubt) [Example 406, 2-[6-[(3aS,7aR)-6-ethyl-3,3a,4,5,7,7a-hexahydro-2H-pyrrolo[2,3-c]pyridin-1-yl]pyridazin-3-yl]-3-methyl-5-(trifluoromethyl)phenol], the IC50 at NLRP3 inflammasome is 0.078 µM; in test [1] (Homo sapiens, THP-1, 3 h), greater than 10 µM.

With `Cc1cc(C)c(-c2ccc(N3CCC(O)CC3)nn2)c(O)c1` [Example 1, 1-[6-(2-hydroxy-4,6-dimethyl-phenyl)pyridazin-3-yl]piperidin-4-ol], the IC50 on NLRP3 inflammasome is 0.407 µM; in test [1] (Homo sapiens, THP-1, 3 h), greater than 10 µM.

For the compound `Cc1cc(C)c(-c2ccc(N3CCOC[C@H]3CO)nn2)c(O)c1` [Example 5, 2-[6-[(3R)-3-(hydroxymethyl)morpholin-4-yl]pyridazin-3-yl]-3,5-dimethyl-phenol], the concentration for half-maximal inhibition (IC50) at NLRP3 inflammasome was 0.29 µM; in test [1] (Homo sapiens, THP-1, 3 h), greater than 10 µM.

As to `Cc1cc(C)c(-c2ccc(N3CCOC[C@@H]3CO)nn2)c(O)c1` [Example 6, 2-[6-[(3S)-3-(hydroxymethyl)morpholin-4-yl]pyridazin-3-yl]-3,5-dimethyl-phenol], the IC50 at NLRP3 inflammasome is 0.235 µM; in test [1] (Homo sapiens, THP-1, 3 h), greater than 10 µM.

For `Cc1cc(C)c(-c2ccc(N3CCO[C@H](CO)C3)nn2)c(O)c1` [Example 8, 2-[6-[(2S)-2-(hydroxymethyl)morpholin-4-yl]pyridazin-3-yl]-3,5-dimethyl-phenol], the half-inhibitory concentration (IC50) at NLRP3 inflammasome is 0.02 µM; in test [1] (Homo sapiens, THP-1, 3 h), greater than 10 µM.

For `Cc1cc(C)c(-c2ccc(N3CCO[C@@H](CO)C3)nn2)c(O)c1` [Example 9, 2-[6-[(2R)-2-(hydroxymethyl)morpholin-4-yl]pyridazin-3-yl]-3,5-dimethyl-phenol], the IC50 at NLRP3 inflammasome was 0.113 µM; in test [1] (Homo sapiens, THP-1, 3 h), greater than 10 µM.

For `COC[C@H]1CCCN1c1ccc(-c2c(C)cc(C(F)(F)F)cc2O)nn1` [Example 14, 2-[6-[(2R)-2-(methoxymethyl)pyrrolidin-1-yl]pyridazin-3-yl]-3-methyl-5-(trifluoromethyl)phenol], the IC50 on NLRP3 inflammasome is 0.605 µM; in test [1] (Homo sapiens, THP-1, 3 h) it was greater than 10 µM.

Regarding `COC[C@@H]1CCCN1c1ccc(-c2c(C)cc(C(F)(F)F)cc2O)nn1` [Example 15, 2-[6-[(2S)-2-(methoxymethyl)pyrrolidin-1-yl]pyridazin-3-yl]-3-methyl-5-(trifluoromethyl)phenol], the IC50 at NLRP3 inflammasome is 0.406 µM; in test [1] (Homo sapiens, THP-1, 3 h) it was greater than 10 µM.

Regarding `Cc1cc(C(F)(F)F)cc(O)c1-c1ccc(N2CCO[C@H](CO)C2)nn1` [Example 16, 2-[6-[(2S)-2-(hydroxymethyl)morpholin-4-yl]pyridazin-3-yl]-3-methyl-5-(trifluoromethyl)phenol], the IC50 on NLRP3 inflammasome was 0.025 µM; in test [1] (Homo sapiens, THP-1, 3 h), greater than 10 µM.

For `NC1(C2CCCN(c3ccc(-c4c(O)cc(Cl)cc4Cl)nn3)C2)CC1` (centres unmarked) [Example 17, 2-[6-[3-(1-aminocyclopropyl)-1-piperidyl]pyridazin-3-yl]-3,5-dichloro-phenol], the IC50 at NLRP3 inflammasome was 0.473 µM; in test [1] (Homo sapiens, THP-1, 3 h), greater than 10 µM.

Consider `NC[C@@H]1CCCN(c2ccc(-c3c(O)cc(Cl)cc3Cl)nn2)C1` [Example 18, 2-[6-[(3S)-3-(aminomethyl)-1-piperidyl]pyridazin-3-yl]-3,5-dichloro-phenol], for which the IC50 is 0.173 µM on NLRP3 inflammasome and greater than 10 µM in test [1] (Homo sapiens, THP-1, 3 h).
